Measurements taken from article PMC11206297, “Targeting NAD Metabolism: Rational Design, Synthesis and In Vitro Evaluation of NAMPT/PARP1 Dual-Target Inhibitors as Anti-Breast Cancer Agents” (Molecules, 2024).
Like-named read-outs stand apart in the source and are kept apart here. Blank lines part the entries; values can stand above or below the compound they belong to.

How the values were obtained:
PARP1 [1] = biological target: T1, PARP1 (Homo sapiens, UniProt P09874); design: method as in PMID 18579376, PMID 18800822, PMID 24388690, PMID 28340412, PMID 36183505; conditions: in figure; cited from earlier work
MDA-MB-468 = assay: MTT cell viability assay, MDA-MB-468; format: cell-based; conditions: Homo sapiens, 72 h, mean ± SEM, read-out: Cytotoxicity IC50 MDA-MB-468
Protocol: (§1) MDA-MB-468, MDA-MB-231, MCF-7, and MCF-10A cell lines were obtained from the National Collection of Authenticated Cell Culture, China. The cells were cultured in DMEM medium supplemented with 10% FBS and 1% penicillin/streptomycin, and maintained at 37 °C in a humidified atmosphere with 5% CO2.
(§2) Cell viability was assessed using the MTT assay. Cells were seeded at a density of 3 × 10^3 cells per well in a 96-well plate and treated with various concentrations (0.05, 0.2, 0.8, 3.2, 6.4, 12.8 µM) of the compounds for 72 h. After incubation, 100 µL of MTT solution (0.5 mg/mL) was added to each well and further incubated for 4 h. The resulting formazan crystals were dissolved in 150 µL of DMSO, and the absorbance was measured at 570 nm using a microplate reader.

MDA-MB-468 cells [2] = assay: Cellular NAD level determination (NAD+/NADH WST-8 kit); format: cell-based
Protocol: According to the manufacturer’s instructions, an NAD^+/NADH Assay kit with WST-8 (Beyotime, China) was used to measure the intracellular NAD level. The cells collected by centrifugation were added to NAD^+/NADH lysis buffer to obtain a cell lysate. After adding […] working solution, the lysate was incubated at 37 °C for 10 min, and then followed by the addition of color-developing solution. The total concentration of NADH and NAD can be measured by detecting the absorbance at 450 nm. To measure the concentration of NADH, the cell lysate was incubated at 60 °C for 30 min before adding […] working solution. Finally, the NAD content is obtained by the subtraction [NAD^+] = [NADH + NAD^+] − [NADH].

MDA-MB-468 cells [3] = assay: Western blot of BCL2; format: cell-based; conditions: 24 h
Protocol: (§3) Cells were then lysed using RIPA buffer supplemented with protease and phosphatase inhibitors. Protein concentrations were determined using the BCA Protein Assay Kit (Thermo Fisher Scientific^TM, Waltham, MA, USA). Equal amounts of protein (20–30 µg) were separated by SDS-polyacrylamide gel electrophoresis and transferred to a polyvinylidene fluoride (PVDF) membrane. The membrane was blocked with 5% milk in PBS before incubation with primary antibodies. Primary antibodies against γ-H2AX (Cell Signaling Technology™, Danvers, MA, USA), BCL2 (Abcam™, Cambridge, UK), and β-actin (Proteintech™, Rosemont, IL, USA) were used. After overnight incubation at 4 °C, membranes were washed and incubated with HRP-conjugated secondary antibodies for 1 h. Protein bands were visualized using ECL reagents (Labgic Technology^TM, Beijing, China).

MDA-MB-468 cells [4] = assay: Cell cycle analysis (PI staining, flow cytometry); format: cell-based; conditions: 48 h, several concentrations
Protocol: Cell cycle distribution was determined using a DNA Content Quantitation Assay Kit (Solarbio, China). MDA-MB-468 cells were seeded in six-well plates and treated with various […]
treatment, cells were harvested, ﬁxed in 70% ethanol at 4°C overnight, and washed with PBS.
Cells were then incubated with RNase (100 µL) at 37°C for 30 minutes followed by propidium iodide (PI) staining (400 µL, 30 minutes, 4°C in the dark). Cell cycle distribution was analyzed using an Accuri C6 Plus ﬂow cytometer (BD Biosciences, CA) and data were processed using […]
Figure S5. DDY02 induced cell cycle of MDA-MB-468 cells arrest in the G1 phase.
(1 picture or pasted object on this page, not shown here)

MCF-10A = assay: MTT cell viability assay, MCF-10A normal breast epithelial cells; format: cell-based, human; conditions: for viability at 3 µM: Homo sapiens, 72 h, MCF-10A, mean ± SEM, read-out: Cell Survival Rate; for selectivity of cytotoxic activity between breast cancer cells and normal cells (MCF-10A): comparison of Tables 2 and 3
Protocol: as §1, §2

[5] = as above; format: cell-based, human; conditions: human, MCF-10A normal breast epithelial cells; MCF-10A; mean ± SEM; read-out: Cytotoxicity IC50
Protocol: as §1, §2

MCF-7 = assay: MTT cell viability assay, MCF-7; format: cell-based; conditions: Homo sapiens, MCF7, 72 h, mean ± SEM, read-out: Cytotoxicity IC50 MCF-7
Protocol: as §1, §2

MDA-MB-468 cells [6] = assay: Colony formation (clonogenic) assay; format: cell-based; conditions: MDA-MB-468, 7 days
Protocol: MDA-MB-468 cells were plated in 6-well plates at a density of 500 cells/well and allowed to grow for 7 days to promote colony formation. Following the incubation period, cells were washed with PBS, fixed in methanol for 15 min, and stained with 1% crystal violet for 1 h. Subsequently, colonies were imaged and counted.

NAMPT = NAMPT (Homo sapiens, UniProt P43490); assay: NAMPT enzymatic inhibition assay (fluorescence, coupled NMNAT/alcohol dehydrogenase); format: biochemical; conditions: for IC50: mean ± SD of at least two independent experiments in duplicate
MDA-MB-468 cells [7] = assay: Wound scratch cell migration assay; format: cell-based; conditions: up to 48 h
Protocol: MDA-MB-468 cells were plated in 6-well plates at a density of 5 × 10^5 cells/well and allowed to incubate overnight. A scratch was carefully generated in the cell monolayer using a 10 µL pipette tip. […] Images were acquired at 0, 12, 24, and 48 h time points to monitor and analyze the migration of cells over the specified intervals.

MDA-MB-468 cells [8] = assay: Comet assay (DNA damage); format: cell-based; conditions: 24 h, several concentrations
Protocol: The comet assay was conducted under alkaline conditions using the Comet Assay Kit (Beyotime, Shanghai, China) following the manufacturer’s guidelines. […] This mixture was spread onto microscope slides and immersed in lysis solution for 1 h. Electrophoresis was carried out in a horizontal apparatus at 25 V and 300 mA. After electrophoresis, slides were stained with propidium iodide (PI) for DNA visualization, and images were captured using a fluorescence inverted microscope.

MDA-MB-468 cells [9] = assay: Annexin V-FITC/PI apoptosis assay (flow cytometry); format: cell-based; conditions: 72 h
Protocol: To investigate whether DDY02 induced apoptosis in MDA-MB-468 cells, we performed the annexin V/PI double staining assay, and the staining results were analyzed by flow cytometry, dividing the results into four quadrants (Q1~Q4). In this representation, Q1 represents necrosis, Q2 represents late apoptosis, Q3 represents early apoptosis, and Q4 represents living cells.
The Annexin V-FITC/PI cell apoptosis detection kit (KeyGen Biotech, Nanjing, China) was employed for the analysis of cell apoptosis. MDA-MB-468 cells (5 × 10^5 cells/mL) were seeded in six-well plates and treated with compounds at corresponding concentrations for 72 h. Subsequently, MDA-MB-468 cells were harvested and incubated with 5 μL of Annexin V-FITC and 5 μL of propidium iodide (PI) in the dark for 15 min at room temperature. Apoptosis data were assessed using flow cytometry (Accuri C6 Plus, BD Bioscience, San Jose, CA, USA).

MDA-MB-468 cells [10] = assay: Western blot of γ-H2AX; format: cell-based; conditions: 24 h
Protocol: as §3

MDA-MB-231 = assay: MTT cell viability assay, MDA-MB-231; format: cell-based; conditions: Homo sapiens, 72 h, mean ± SEM, read-out: Cytotoxicity IC50 MDA-MB-231
Protocol: as §1, §2

PARP1 [11] = biological target: T1, PARP1; assay: PARP1 enzymatic inhibition assay (ELISA, chemiluminescence); format: biochemical; conditions: for IC50: mean ± SD of at least two independent experiments in duplicate
MDA-MB-468 cells [12] = assay: NMN rescue of cytotoxicity; format: cell-based; conditions: 200 μM NMN
From the text: NMN is the direct product of the NAMPT-catalyzed reaction. Excessive NMN can counteract the inhibitory effect of NAMPT inhibition. […] The reversal of DDY02’s efficacy by NMN underscores the compound’s mechanism of action and confirms the critical role of NAMPT inhibition in mediating its therapeutic effects. This observation also emphasizes the potential of NMN as a modulator in therapeutic scenarios involving NAMPT-targeted treatments.

NAMPT, sequence (P43490 whole entry): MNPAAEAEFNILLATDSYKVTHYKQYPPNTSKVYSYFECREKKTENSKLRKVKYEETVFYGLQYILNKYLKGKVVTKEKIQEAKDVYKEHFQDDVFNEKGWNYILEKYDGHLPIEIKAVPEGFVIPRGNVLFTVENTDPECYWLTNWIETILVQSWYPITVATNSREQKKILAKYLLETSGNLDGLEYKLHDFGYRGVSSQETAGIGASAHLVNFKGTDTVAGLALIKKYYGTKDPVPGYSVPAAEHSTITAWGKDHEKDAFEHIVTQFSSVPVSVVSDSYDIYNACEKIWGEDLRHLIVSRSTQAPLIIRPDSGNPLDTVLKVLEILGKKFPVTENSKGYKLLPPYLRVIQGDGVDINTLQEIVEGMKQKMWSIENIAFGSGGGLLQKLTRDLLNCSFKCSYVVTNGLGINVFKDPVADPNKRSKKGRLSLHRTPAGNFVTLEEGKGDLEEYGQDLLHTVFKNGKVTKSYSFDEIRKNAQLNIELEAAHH
T1 sequence (P09874 whole entry): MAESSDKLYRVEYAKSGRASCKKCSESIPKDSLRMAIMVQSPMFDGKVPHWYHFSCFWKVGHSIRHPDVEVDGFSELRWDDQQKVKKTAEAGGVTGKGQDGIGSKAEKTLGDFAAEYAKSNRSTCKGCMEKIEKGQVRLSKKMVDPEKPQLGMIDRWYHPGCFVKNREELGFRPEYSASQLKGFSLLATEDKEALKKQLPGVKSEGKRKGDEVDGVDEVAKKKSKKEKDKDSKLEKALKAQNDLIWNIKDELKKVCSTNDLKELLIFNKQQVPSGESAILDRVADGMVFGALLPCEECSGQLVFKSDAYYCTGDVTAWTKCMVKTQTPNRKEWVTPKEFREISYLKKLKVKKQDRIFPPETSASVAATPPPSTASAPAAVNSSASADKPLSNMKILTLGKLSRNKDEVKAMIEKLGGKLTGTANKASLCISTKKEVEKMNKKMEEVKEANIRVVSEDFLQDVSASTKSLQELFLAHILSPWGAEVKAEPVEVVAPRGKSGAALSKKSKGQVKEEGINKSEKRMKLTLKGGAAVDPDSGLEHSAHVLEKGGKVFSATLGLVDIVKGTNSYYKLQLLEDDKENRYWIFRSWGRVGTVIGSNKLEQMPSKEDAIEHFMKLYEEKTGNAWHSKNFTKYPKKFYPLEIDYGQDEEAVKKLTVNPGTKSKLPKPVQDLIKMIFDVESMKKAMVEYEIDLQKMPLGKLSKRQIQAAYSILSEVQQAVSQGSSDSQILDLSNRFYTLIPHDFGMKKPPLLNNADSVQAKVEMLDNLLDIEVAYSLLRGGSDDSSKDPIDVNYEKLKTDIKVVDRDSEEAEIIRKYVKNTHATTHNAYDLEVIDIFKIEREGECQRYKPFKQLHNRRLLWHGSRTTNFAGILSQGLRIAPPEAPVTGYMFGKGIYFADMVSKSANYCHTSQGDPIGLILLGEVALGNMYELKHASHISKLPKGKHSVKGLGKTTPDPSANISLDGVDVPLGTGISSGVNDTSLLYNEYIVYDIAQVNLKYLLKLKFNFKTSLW

- melting point: 197 to 198 °C
- IC50 (NAMPT): 0.01 ± 0.003 µM
- IC50 (PARP1 [11]): 0.05 ± 0.01 µM
- fold decrease in inhibitory capacity against PARP1 compared to DDY01 (PARP1 [11]; ratio of IC50 values): 5.5 fold
Compound: O=C(NCc1cccnc1)Nc1ccc(S(=O)(=O)N2CCN(C(=O)c3cc(Cc4n[nH]c(=O)c5ccccc45)ccc3F)CC2)cc1 [DDY02, 1-(4-((4-(2-Fluoro-5-((4-oxo-3,4-dihydrophthalazin-1-yl)methyl)benzoyl)piperazin-1-yl)sulfonyl)phenyl)-3-(pyridin-3-ylmethyl)urea]
- IC50 (MDA-MB-468): 4.43 ± 0.04 µM
- cellular NAD levels (MDA-MB-468 cells [2]; 24 h, 1 μM): marginally less potent than FK866
- cellular NAD levels (MDA-MB-468 cells [2]; 24 h post-treatment, several concentrations): reduced cellular NAD levels in a dose-dependent manner
- BCL2 expression (MDA-MB-468 cells [3]; several concentrations): inhibited BCL2 expression in a dose-dependent manner
- cell cycle distribution (MDA-MB-468 cells [4]): dose-dependent G1-phase cell cycle arrest
- viability at 3 µM (MCF-10A): 70.3 ± 1.06%
- selectivity of cytotoxic activity between breast cancer cells and normal cells (MCF-10A) (MCF-10A): no selectivity
- IC50 at 72 h [5]: 5.31 ± 0.12 µM
- IC50 (MCF-7): 7.61 ± 0.14 µM
- colony formation (MDA-MB-468 cells [6]; 1 μM): more potent ability to inhibit colony formation compared to Olaparib, albeit slightly less effective than FK866
- colony formation (MDA-MB-468 cells [6]; several concentrations): dose-dependent suppression of colony formation
- inhibitory effect on cell migration (MDA-MB-468 cells [7]; 1 μM): slightly less pronounced inhibitory effect
- inhibitory effect on cell migration (MDA-MB-468 cells [7]; 3 μM): further augmented
- DNA damage (comet assay) (MDA-MB-468 cells [8]): increased DNA damage in a concentration-dependent manner
- percentage of apoptotic cells (Q2 + Q3) (MDA-MB-468 cells [9]; 0.3 µM): 13.34%
- levels of apoptosis (comparison) (MDA-MB-468 cells [9]; 1 μM): higher levels of apoptosis compared to Olaparib and FK866 alone
- percentage of apoptotic cells (Q2 + Q3) (MDA-MB-468 cells [9]; 1 μM): 21.20%
- percentage of apoptotic cells (Q2 + Q3) (MDA-MB-468 cells [9]; 3 µM): 48.3%
- accumulation of γ-H2AX (MDA-MB-468 cells [10]; 1 μM): most substantial effect
- accumulation of γ-H2AX (MDA-MB-468 cells [10]; several concentrations): dose-dependent accumulation of γ-H2AX
- IC50 (MDA-MB-231): 10.4 ± 0.16 µM
- cytotoxic effects after preincubation with NMN (MDA-MB-468 cells [12]): reversed the cytotoxic effects

- melting point: > 250 °C
- inhibition at 0.1 µM (NAMPT; 0.1 μM, duplicate, average, read-out: NAMPT Inhibition Rate): 7%
- inhibition at 0.5 µM (PARP1 [11]; 0.5 μM, duplicate, average, read-out: PARP1 Inhibition Rate): 55%
Compound: NC(=O)c1cccc2[nH]c(C(=O)N3CCN(S(=O)(=O)c4ccc(NC(=S)NCc5cccnc5)cc4)CC3)nc12 [DDY10, 2-(4-((4-(3-(Pyridin-3-ylmethyl)thioureido)phenyl)sulfonyl)piperazine-1-carbonyl)-1H-benzo[d]imidazole-4-carboxamide]
- IC50 (MDA-MB-468): 6.74 ± 0.16 µM
- viability at 3 µM (MCF-10A): 96.9 ± 1.71%
- IC50 (MCF-7): 8.83 ± 0.31 µM
- IC50 (MDA-MB-231): 4.45 ± 0.29 µM

- melting point: > 250 °C
- IC50 (NAMPT): 0.034 ± 0.009 µM
- IC50 (PARP1 [11]): 0.014 ± 0.003 µM
Compound: NC(=O)c1cccc2[nH]c(C(=O)N3CCN(S(=O)(=O)c4ccc(NC(=O)NCc5cccnc5)cc4)CC3)nc12 [DDY11, 2-(4-((4-(3-(Pyridin-3-ylmethyl)ureido)phenyl)sulfonyl)piperazine-1-carbonyl)-1H-benzo[d]imidazole-4-carboxamide]
- IC50 (MDA-MB-468): 12.2 ± 1.39 µM
- viability at 3 µM (MCF-10A): 82.15 ± 0.21%
- IC50 (MCF-7): 7.39 ± 0.34 µM
- IC50 (MDA-MB-231): 13.8 ± 0.33 µM

Second part, the compound before the results:

Compound: NC(=O)c1ccccc1OCc1ccc(F)c(C(=O)N2CCN(C(=O)C3CCCC3)CC2)c1 [Compound 16]
- IC50 (PARP1 [1]): 0.061 µM

Compound: O=C(/C=C/c1cccnc1)NCCCCC1CCN(C(=O)c2ccccc2)CC1 [FK866, reference compound]
- IC50 (MDA-MB-468): 4.01 ± 0.21 µM
- BCL2 expression (MDA-MB-468 cells [3]; 1 μM): no effect on the expression of BCL2
- viability at 3 µM (MCF-10A): 65.49 ± 0.41%
- IC50 at 72 h [5]: 4.41 ± 0.22 µM
- IC50 (MCF-7): 5.8 ± 0.86 µM
- inhibitory effect on cell migration (MDA-MB-468 cells [7]; 1 μM): weakest inhibitory activity
- accumulation of γ-H2AX (MDA-MB-468 cells [10]; 1 μM): promoted the accumulation of γ-H2AX
- IC50 (MDA-MB-231): 3.83 ± 0.12 µM
- cytotoxic effects after preincubation with NMN (MDA-MB-468 cells [12]): reversed the cytotoxic effects

Compound: O=C(c1cc(Cc2n[nH]c(=O)c3ccccc23)ccc1F)N1CCN(C(=O)C2CC2)CC1 [Olaparib, reference compound]
- IC50 (MDA-MB-468): 6.19 ± 0.09 µM
- cellular NAD levels (MDA-MB-468 cells [2]; 24 h, 1 μM): did not alter intracellular NAD levels compared to the control
- BCL2 expression (MDA-MB-468 cells [3]; 1 μM): significantly inhibited the expression of the BCL2 protein
- viability at 3 µM (MCF-10A): 91.8 ± 1.78%
- selectivity of cytotoxic activity between breast cancer cells and normal cells (MCF-10A) (MCF-10A): no selectivity
- IC50 at 72 h [5]: 9.61 ± 0.77 µM
- IC50 (MCF-7): 8.68 ± 0.81 µM
- inhibitory effect on cell migration (MDA-MB-468 cells [7]; 1 μM): most robust inhibitory effect
- IC50 (MDA-MB-231): 6.74 ± 0.08 µM
